Assays:
BI-2493 [1] = compound: T1, C[C@H]1CNCCN1c1nccc(-c2noc3c2CCC[C@@]32CCCc3sc(N)c(C#N)c32)n1 [BI-2493]; assay: 1 - AUC of viability dose-response curve (sensitivity) (fraction); higher = more sensitive; conditions: 5 days
Method: (§1)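 PRISM pooled barcoded cancer cell line viability screen (Broad Institute) with BI-2493 at 8 doses in threefold dilutions from 0.00457 to 10 µmol/L, 5-day treatment; curves fitted per cell line. IC50 is undefined (placeholder) for resistant lines. AUC is capped at 1, and sensitivity is reported as 1 − AUC.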

BI-2493 [2] = compound: T1, BI-2493; conditions: 5 days
Method: as §1

Test System | 1 - AUC of viability dose-response curve (BI-2493 [1]) | IC50 of cell viability (BI-2493 [2]) [µM]
L363_HAEMATOPOIETIC_AND_LYMPHOID_TISSUE | 0.041 | 7.78
LAMA84_HAEMATOPOIETIC_AND_LYMPHOID_TISSUE | 0.34 | 0.76
LC1SQSF_LUNG | 0.255 | > 10
LCLC103H_LUNG | 0.0229 | 8.64
LI7_LIVER | 0.213 | 1.52
LMSU_STOMACH | 0.103 | 5.54
LN18_CENTRAL_NERVOUS_SYSTEM | 0.0792 | 6.48
LN229_CENTRAL_NERVOUS_SYSTEM | 0.0706 | 8.48
LN382_CENTRAL_NERVOUS_SYSTEM | 0.0249 | 8.95
LN464_CENTRAL_NERVOUS_SYSTEM | 0.0968 | 4.83
LNCAPCLONEFGC_PROSTATE | 0.152 | 3.64
LNZ308_CENTRAL_NERVOUS_SYSTEM | 0.142 | 7.52
LOUNH91_LUNG | 0.189 | > 10
LOVO_LARGE_INTESTINE | 0.246 | 1.17
LOXIMVI_SKIN | 0.0241 | 8.63
LPS141_SOFT_TISSUE | 0.0281 | > 10
LS180_LARGE_INTESTINE | 0.244 | 1.08
LS513_LARGE_INTESTINE | 0.494 | 0.175
LS1034_LARGE_INTESTINE | 0.337 | 0.575
LS_AUTONOMIC_GANGLIA | 0.125 | 3.67
LU99_LUNG | 0.0228 | 8.77
LUDLU1_LUNG | 0.143 | 4.54
LXF289_LUNG | 0.103 | 8.04
M059K_CENTRAL_NERVOUS_SYSTEM | 0.00953 | 9.49

Test System | 1 - AUC of viability dose-response curve (BI-2493 [1]) | IC50 of cell viability (BI-2493 [2]) [µM]
MALME3M_SKIN | 0.0805 | 6.19
MB1_THYROID | 0.165 | 5.5
MC116_HAEMATOPOIETIC_AND_LYMPHOID_TISSUE | 0.0718 | 5.28
MCC26_SKIN | 0.0203 | > 10
MCC142_SKIN | 0.0347 | 9.48
MCF7_BREAST | 0.0329 | 8.66
MDAMB175VII_BREAST | 0.0449 | 8.51
MDAMB231_BREAST | 0.0666 | 7.4
MDAMB361_BREAST | 0.14 | > 10
MDAMB435S_SKIN | 0.0956 | 4.3
MDAMB436_BREAST | 0.0282 | > 10
MDAMB453_BREAST | 0.115 | 5.47
MDAPCA2B_PROSTATE | 0.118 | > 10
MDST8_LARGE_INTESTINE | 0.00776 | 9.82
MEG01_HAEMATOPOIETIC_AND_LYMPHOID_TISSUE | 0.0154 | 9.19
MEL285_UVEA | 0.145 | 6.23
MEL290_UVEA | 0.105 | > 10
MELHO_SKIN | 0.131 | 7.85
MESSA_SOFT_TISSUE | 0.17 | 3.73
MEWO_SKIN | 0.0577 | 9.6
MFE280_ENDOMETRIUM | 0.18 | > 10
MFE296_ENDOMETRIUM | 0.136 | 9.19
MFE319_ENDOMETRIUM | 0.0267 | 9.02
MG63_BONE | 0.0826 | 9.09

Test System | 1 - AUC of viability dose-response curve (BI-2493 [1]) | IC50 of cell viability (BI-2493 [2]) [µM]
MHHES1_BONE | 0.114 | 8.05
MHHNB11_AUTONOMIC_GANGLIA | 0.177 | 4.36
MKN1_STOMACH | 0.305 | 1.18
MKN7_STOMACH | 0.161 | 8.55
MKN45_STOMACH | 0.401 | 0.5
MKN74_STOMACH | 0.117 | 7.22
MM1S_HAEMATOPOIETIC_AND_LYMPHOID_TISSUE | 0.413 | 0.558
MM127_SKIN | 0.0501 | 7.34
MMNK1_BILIARY_TRACT | 0.0714 | 4.9
MOLM14_HAEMATOPOIETIC_AND_LYMPHOID_TISSUE | 0.145 | 2.79
MOLP2_HAEMATOPOIETIC_AND_LYMPHOID_TISSUE | 0.0525 | 6.56
MOLT3_HAEMATOPOIETIC_AND_LYMPHOID_TISSUE | 0.0789 | 6.51
MOLT13_HAEMATOPOIETIC_AND_LYMPHOID_TISSUE | 0.13 | 5.21
MOLT16_HAEMATOPOIETIC_AND_LYMPHOID_TISSUE | 0.297 | 1.81
MONOMAC1_HAEMATOPOIETIC_AND_LYMPHOID_TISSUE | 0.17 | 7.33
MONOMAC6_HAEMATOPOIETIC_AND_LYMPHOID_TISSUE | 0.149 | 7.72
MON_SOFT_TISSUE | 0.163 | 2.57
MP41_UVEA | 0.119 | 5.17
MPP89_PLEURA | 0.0335 | 9.24
MS751_CERVIX | 0.029 | 8.93
MSTO211H_PLEURA | 0.136 | 3.67
NALM6_HAEMATOPOIETIC_AND_LYMPHOID_TISSUE | 0.0753 | 6.5
NB1_AUTONOMIC_GANGLIA | 0.201 | 3.3
NB4_HAEMATOPOIETIC_AND_LYMPHOID_TISSUE | 0.175 | 2.53

Test System | 1 - AUC of viability dose-response curve (BI-2493 [1]) | IC50 of cell viability (BI-2493 [2]) [µM]
NCCIT_TESTIS | 0.192 | 0.878
NCIH23_LUNG | 0.199 | 3
NCIH28_PLEURA | 0.0967 | 5.43
NCIH82_LUNG | 0.0218 | 8.8
NCIH196_LUNG | 0.0864 | 6.4
NCIH226_LUNG | 0.134 | 5.37
NCIH292_LUNG | 0.0643 | 5.7
NCIH322_LUNG | 0.257 | 2.29
NCIH358_LUNG | 0.281 | 2.33
NCIH441_LUNG | 0.168 | 4.14
NCIH446_LUNG | 0.216 | 4.06
NCIH508_LARGE_INTESTINE | 0.088 | > 10
NCIH520_LUNG | 0.0795 | > 10
NCIH522_LUNG | 0.0303 | 9.9
NCIH524_LUNG | 0.0829 | 5.44
NCIH596_LUNG | 0.00278 | > 10
NCIH647_LUNG | 0.171 | 5.65
NCIH650_LUNG | 0.0133 | 9.27
NCIH661_LUNG | 0.155 | 9.34
NCIH727_LUNG | 0.129 | 6.54
NCIH747_LARGE_INTESTINE | 0.384 | 0.323
NCIH838_LUNG | 0.0686 | 7.55
NCIH841_LUNG | 0.162 | 6.98
NCIH1048_LUNG | 0.0696 | 6.78
